Assay results taken from patent US20240156104A1, “FUNGI-DERIVED COMPOSITION, ITS PRODUCTION PROCESS AND USES” (NATURAL RESOURCES INSTITUTE FINLAND (LUKE), priority 2021, published 2024).

System: coxsackievirus A9 (CVA9)
Experiment: cytopathic effect (CPE) inhibition assay against CVA9 in A549 cells
Type: cell-based
Details: virus treated 37° C. 1 hour; for antiviral activity of commercial ganoderic acid against CVA9 (FIG. 10A): 100 μM, 500 μM, 1 mM, 5 mM and 10 mM; for antiviral activity of commercial ganoderic acids against CVA9 (FIG. 10B): 12.5 μM, 25 μM, 50 μM, 100 μM and 500 μM, MOI 100

For `C[C@H](CC(=O)C[C@@H](C)[C@H]1C[C@H](O)[C@@]2(C)C3=C(C(=O)C[C@]12C)[C@@]1(C)CCC(=O)C(C)(C)[C@@H]1C[C@@H]3O)C(=O)O` [GA A, Ganoderic Acid A], the “antiviral activity of commercial ganoderic acid against CVA9 (FIG. 10A)” value (MOI 66.7) was “fails to demonstrate any antiviral activity” and the “antiviral activity of commercial ganoderic acid against CVA9 (FIG. 10A)” value (MOI 66.7, listed as Ganoderic Acid A) was “does not possess any antiviral activity”.
With `C/C(=C\CC[C@@H](C)[C@H]1C[C@H](O)[C@@]2(C)C3=CC[C@H]4C(C)(C)C(=O)CC[C@]4(C)C3=CC[C@]12C)C(=O)O` [GA TR, Ganoderic Acid TR] the “antiviral activity of commercial ganoderic acids against CVA9 (FIG. 10B)” value (from here on “antiviral activity … (FIG. 10B)”) was “fails to demonstrate any antiviral activity”.
For `C/C(=C\CC[C@@H](C)[C@H]1CC[C@@]2(C)C3=CC[C@H]4C(C)(C)[C@@H](O)CC[C@]4(C)C3=CC[C@]12C)C(=O)O` [GA Y, Ganoderic Acid Y], the “antiviral activity … (FIG. 10B)” value was “fails to demonstrate any antiviral activity”.
With `CC(=O)O[C@H]1C[C@H]([C@H](C)CC/C=C(\C)C(=O)O)[C@@]2(C)CC=C3C(=CC[C@H]4C(C)(C)C(=O)CC[C@]34C)[C@]12C` [GA TQ, Ganoderic Acid TQ] the “antiviral activity … (FIG. 10B)” value was “fails to demonstrate any antiviral activity”.
